Assay results taken from patent publication US5236957A, “N-phenylalkyl substituted α-amino carboxamide derivatives and process for their preparation” (Farmitalia Carlo Erba Srl, priority 1989, dated 1993).
Read-outs that look alike come from different tables or passages of the source.

How the values were obtained:
[1] = molecular target: T1, MAO type B (Rattus norvegicus, UniProt P19643); test: Inhibition of MAO type B, rat liver mitochondria, 2-phenylethylamine as substrate; type: biochemical; settings: rat liver mitochondria as source of MAO
T1 construct: using rat liver mitochondria as the source of MAO; from tissue; host or cells: rat liver mitochondria
T1 sequence (P19643 1-520): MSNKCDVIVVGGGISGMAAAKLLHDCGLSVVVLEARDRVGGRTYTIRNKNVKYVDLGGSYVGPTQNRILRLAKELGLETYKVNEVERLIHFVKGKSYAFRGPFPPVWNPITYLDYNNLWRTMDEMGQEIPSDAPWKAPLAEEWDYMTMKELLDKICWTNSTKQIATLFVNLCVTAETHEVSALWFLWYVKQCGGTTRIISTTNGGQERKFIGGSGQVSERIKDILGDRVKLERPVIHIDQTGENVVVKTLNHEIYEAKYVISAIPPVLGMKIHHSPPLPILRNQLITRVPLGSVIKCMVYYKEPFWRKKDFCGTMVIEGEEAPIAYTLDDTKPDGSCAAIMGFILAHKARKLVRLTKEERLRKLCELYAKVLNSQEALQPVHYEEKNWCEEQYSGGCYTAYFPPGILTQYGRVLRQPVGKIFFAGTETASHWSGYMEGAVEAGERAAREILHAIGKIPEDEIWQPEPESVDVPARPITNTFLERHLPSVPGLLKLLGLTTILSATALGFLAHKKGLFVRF

[2] = system: bicucculine-induced lethality in mice; test: Antagonism of bicucculine-induced lethality in mice; type: in vivo; settings: Mus musculus, po; drugs given orally 1 h before bicucculine (0.6 mg/kg, i.v.); protection of 50% of mice from lethality
Protocol: (§1) The activity on the CNS of the compounds of the invention was evaluated on the basis of pharmacological methods, such as, for example, the antagonism of convulsions and lethality induced by intravenous injection of bicucculine in mice (Antiepileptic Drug, D. M. Woodbury et al. eds., 2nd edition, Raven Press, New York, 1982), or the antagonism of convulsions induced in mice by subcutaneous injection of 3-mercaptopropionic acid (W. Loscher, Biochem. Pharmacol., 28; 1397-1407, 1979). Accordingly in following Tables 1 and 2, the doses which protect 50% of the mice (i.e. ED50) from lethality and tonic convulsions induced by bicucculine and 3-mercaptopropanoic acid, respectively, are given for a representative group of compounds according to the present invention.
Antagonism of bicucculine-induced lethality in mice.
Drugs were given orally 1 h before bicucculine (0.6 mg/kg, i.v.)

[3] = system: 3-mercaptopropionic acid (MPA) induced tonic convulsions in mice; test: Antagonism of 3-mercaptopropionic acid (MPA) induced tonic convulsions in mice; type: in vivo; settings: Mus musculus, po
Protocol: as §1
Antagonism of 3-mercaptopropionic acid (MPA) induced
tonic convulsions in mice; drugs were given orally
1 h before MPA (60 mg/kg s.c.)

[4] = system: serotonin (5-HT) and 5-hydroxy-indole-3-acetic acid (5-HIAA); test: Levels of 5-HT and 5-HIAA in frontal cortex of mice; type: in vivo; settings: 200 mg/kg p.o.
[5] = drugs given orally 1 h before MPA (60 mg/kg s.c.), protection of 50% of mice from tonic convulsions, read-out: ED50

Compound	ED50 [2] [mg/kg]	ED50 [3, 5] [mg/kg]	other results
NC(=O)CNCc1ccc(OCc2cccc(Cl)c2)cc1 [FCE 25989, 2-[4-(3-chlorobenzyloxy)benzyl]aminoacetamide]	190	28	IC50 [1]: 0.2 µM; increase of 5-HIAA [4]: 37%; increase of 5-HT [4]: 48%
C[C@@H](NCc1ccc(OCc2cccc(Cl)c2)cc1)C(N)=O [FCE 26312, (R)-2-[4-(3-chlorobenzyloxy)benzyl]aminopropionamide]	50	10	–
CNC(=O)[C@H](CO)NCc1ccc(OCc2ccccc2)cc1 [FCE 26358, (S)-2-(4-benzyloxybenzyl)amino-3-hydroxy-N-methylpropionamide]	16	43	–
CNC(=O)[C@H](CO)NCc1ccc(OCc2cccc(Cl)c2)cc1 [FCE 26359, (S)-2-[4-(3-chlorobenzyloxy)benzyl]amino-3-hydroxy-N-methylpropionamide]	–	29	–
CNC(=O)[C@H](CO)NCc1ccc(OCc2ccccc2Cl)cc1 [FCE 26502, (S)-2-[4-(2-chlorobenzyloxy)benzyl]amino-3-hydroxy-N-methylpropionamide]	27	16	–
C[C@H](NCc1ccc(OCc2ccccc2)cc1)C(N)=O [FCE 26550, (S)-2-(4-benzyloxybenzyl)aminopropionamide]	15	13	–
CNC(=O)[C@H](CO)NCc1ccc(OCc2ccccc2F)cc1 [FCE 26649]	12	–	–
CNC(=O)[C@H](CO)NCc1ccc(OCc2cccc(F)c2)cc1 [FCE 26650, (S)-2-[4-(3-fluorobenzyloxy)benzyl]amino-3-hydroxy-N-methylpropionamide]	25	–	–
C[C@H](NCc1ccc(OCc2ccccc2Cl)cc1)C(N)=O [FCE 26700, (S)-2-[4-(2-chlorobenzyloxy)benzyl]aminopropionamide]	17	–	–
C[C@H](NCc1ccc(Cc2ccccc2)cc1)C(N)=O [FCE 26723, (S)-2-(4-benzylbenzyl)aminopropionamide]	16	–	–
C[C@H](NCc1ccc(OCc2cccc(F)c2)cc1)C(N)=O [FCE 26743, (S)-2-[4-(3-fluorobenzyloxy)benzyl]aminopropionamide]	29	–	–
C[C@H](NCc1ccc(NCc2ccccc2)cc1)C(N)=O [FCE 26749, (S)-2-(4-benzylaminobenzyl)aminopropionamide]	9	–	–
C[C@@H](C(N)=O)N(C)Cc1ccc(Cc2ccccc2)cc1 [FCE 26762, (S)-2-[N-(4-benzylbenzyl)-N-methyl]aminopropionamide]	54	–	–
CCCC(CCC)C(=O)O [Valproate, reference compound]	401	–	ED50 ([3]; 1 h): 302 mg/kg
